The source of these data is patent publication US20100041892A1, “Therapeutic agent for diabetes” (priority 2005, published 2010).

The structures appear in SMILES notation.

By melting point is commonly meant the temperature of the solid-liquid transition. In the case of `CCCCCS(=O)(=O)NC(=O)/C=C/c1ccc(OCCOC)cc1Cc1ncc(Br)s1` [Example 178, (2E)-3-[2-[(5-bromo-1,3-thiazol-2-yl)methyl]-4-(2-methoxyethoxy)phenyl]-N-(pentylsulfonyl)acrylamide], the melting point is 88.5 to 89.1 °C.

In turn, `COCCOc1ccc(CCC(=O)NS(N)(=O)=O)c(Oc2ncc(C(F)(F)F)cc2Cl)c1` [Example 73, N-(aminosulfonyl)-3-[2-{[3-chloro-5-(trifluoromethyl)pyridin-2-yl]oxy}-4-(2-methoxyethoxy)phenyl]propanamide] displayed a melting point of 158 to 159 °C.

Consider `CCCCCS(=O)(=O)NC(=O)CCCc1cc(OCCCC)nn1Cc1ccc(Cl)cc1Cl` [Example 146, 4-[3-butoxy-1-(2,4-dichlorobenzyl)-1H-pyrazol-5-yl]-N-(pentylsulfonyl)butanamide], for which the melting point is 121 to 122 °C.

Compound `CCCCNC(=O)OCCCc1ccc(OCCOC)cc1Oc1ncc(C(F)(F)F)cc1Cl` [Example 49, 3-[2-{[3-chloro-5-(trifluoromethyl)pyridin-2-yl]oxy}-4-(2-methoxyethoxy)phenyl]propyl butylcarbamate] displayed a melting point of 91.7 to 91.8 °C.

With `CC(C)Oc1ccc(CCC(=O)NS(=O)(=O)c2ccccc2)c(Oc2ncc(C(F)(F)F)cc2Cl)c1` [Example 4, 3-(2-{[3-chloro-5-(trifluoromethyl)pyridin-2-yl]oxy}-4-isopropoxyphenyl)-N-(phenylsulfonyl)propanamide], the melting point is 129 to 129.5 °C.

`COCCCNS(=O)(=O)NC(=O)/C(C)=C/c1ccc(OCCOC)cc1Oc1ncc(C(F)(F)F)cc1Cl` [Example 227, (2E)-3-[2-{[3-chloro-5-(trifluoromethyl)pyridin-2-yl]oxy}-4-(2-methoxyethoxy)phenyl]-N-{[(3-methoxypropyl)amino]sulfonyl}-2-methylacrylamide]: the melting point was in the range of 121 to 122 °C.

For `CCCCCS(=O)(=O)NC(=O)CCc1ccc(OCCOC)cc1OCC1CCCO1` (centres unmarked) [Example 166, 3-[4-(2-methoxyethoxy)-2-(tetrahydrofuran-2-ylmethoxy)phenyl]-N-(pentylsulfonyl)propanamide], the melting point lay in the range of 57.8 to 58.9 °C.

`C/C(=C\c1ccc(OC(C)C)cc1Oc1ncc(C(F)(F)F)cc1Cl)C(=O)NS(=O)(=O)NCc1cnc(C)cn1` [Example 470, (2E)-3-(2-{[3-chloro-5-(trifluoromethyl)pyridin-2-yl]oxy}-4-isopropoxyphenyl)-2-methyl-N-({[(5-methylpyrazin-2-yl)methyl]amino}sulfonyl)acrylamide] came in with a melting point of 126 to 128 °C.

For `COCCCS(=O)(=O)NC(=O)CCc1ccc(OC(C)C)cc1Oc1ncc(C(F)(F)F)cc1Cl` [Example 202, 3-(2-{[3-chloro-5-(trifluoromethyl)pyridin-2-yl]oxy}-4-isopropoxyphenyl)-N-[(3-methoxypropyl)sulfonyl]propanamide], the melting point was 114 to 115 °C.

On to `CC(C)Oc1cc(CCC(=O)NS(C)(=O)=O)n(Cc2ccc(Cl)cc2Cl)n1` [Example 148, 3-[1-(2,4-dichlorobenzyl)-3-isopropoxy-1H-pyrazol-5-yl]-N-(methylsulfonyl)propanamide], for which the melting point lay within 104 to 105 °C.

As for `CC(C)Oc1cc(CCC(=O)NS(=O)(=O)C(C)C)n(Cc2ccc(Cl)cc2Cl)n1` [Example 89, 3-[1-(2,4-dichlorobenzyl)-3-isopropoxy-1H-pyrazol-5-yl]-N-(isopropylsulfonyl)propanamide], the melting point fell in the range of 135 to 136 °C.

For the compound `CCCCNS(=O)(=O)NC(=O)OCc1ccc(OCCOC)cc1Oc1ncc(C(F)(F)F)cc1Cl` [Example 66, 2-{[3-chloro-5-(trifluoromethyl)pyridin-2-yl]oxy}-4-(2-methoxyethoxy)benzyl [(butylamino)sulfonyl]carbamate], the melting point was in the range of 164 to 165 °C.

As to `CCCCCS(=O)(=O)NC(=O)/C=C/c1cc(OCCCC)nn1Cc1ccc(C(F)(F)F)cc1Cl` [Example 106, (2E)-3-{3-butoxy-1-[2-chloro-4-(trifluoromethyl)benzyl]-1H-pyrazol-5-yl}-N-(pentylsulfonyl)acrylamide], the melting point is 130 to 132 °C.

Compound `COCCOc1ccc(/C=C(\C)C(=O)NS(=O)(=O)C(F)(F)F)c(Oc2ncc(C(F)(F)F)cc2Cl)c1` [Example 245, (2E)-3-[2-{[3-chloro-5-(trifluoromethyl)pyridin-2-yl]oxy}-4-(2-methoxyethoxy)phenyl]-2-methyl-N-[(trifluoromethyl)sulfonyl]acrylamide] displayed a melting point of 146 to 147 °C.

Compound `COCCOc1cc(/C=C/C(=O)NS(=O)(=O)CCC(C)C)n(Cc2ccc(Cl)cc2Cl)n1` [Example 110, (2E)-3-[1-(2,4-dichlorobenzyl)-3-(2-methoxyethoxy)-1H-pyrazol-5-yl]-N-[(3-methylbutyl)sulfonyl]acrylamide] yielded a melting point of 110 to 114 °C.

Turning to `CCCCCS(=O)(=O)NC(=O)/C=C/c1c(C)cc(C)n1Cc1ccc(Cl)cc1Cl` [Example 458, (2E)-3-[1-{2,4-dichlorobenzyl)-3,5-dimethyl-1H-pyrrol-2-yl]-N-(pentylsulfonyl)acrylamide], the melting point lay within 170 to 171 °C.

`COCCCNS(=O)(=O)NC(=O)/C(C)=C/c1ccc(OC(C)C)cc1Oc1ncc(C(F)(F)F)cc1Cl` [Example 221, (2E)-3-(2-{[3-chloro-5-(trifluoromethyl)pyridin-2-yl]oxy}-4-isopropoxyphenyl)-N-{[(3-methoxypropyl)amino]sulfonyl}-2-methylacrylamide] returned a melting point of 120 to 121 °C.

Take `CCCCCS(=O)(=O)NC(=O)/C=C/c1ccc(OCCOC)cc1Oc1ncc(-c2ccccc2)cc1C` [Example 467, (2E)-3-{4-(2-methoxyethoxy)-2-[(3-methyl-5-phenylpyridin-2-yl)oxy]phenyl}-N-(pentylsulfonyl)acrylamide]: the melting point lay in the range of 132.8 to 133.5 °C.

Turning to `CC(C)OCCNS(=O)(=O)NC(=O)OCCCc1ccc(OCc2ccco2)cc1Oc1ncc(C(F)(F)F)cc1Cl` [Example 476, 3-[2-{[3-chloro-5-(trifluoromethyl)pyridin-2-yl]oxy}-4-(2-furylmethoxy)phenyl]propyl {[(2-isopropoxyethyl)amino]sulfonyl}carbamate], the melting point fell in the range of 118 to 119.8 °C.

For `COCCOc1ccc(CCCNS(=O)(=O)c2ccc(Cl)cc2)c(Oc2ncc(C(F)(F)F)cc2Cl)c1` [Example 22, 4-chloro-N-{3-[2-{[3-chloro-5-(trifluoromethyl)pyridin-2-yl]oxy}-4-(2-methoxyethoxy)phenyl]propyl}benzenesulfonamide], the melting point was in the range of 111 to 113 °C.

In the case of `COCCCNS(=O)(=O)NC(=O)OCCCc1ccc(OCCOC)cc1Oc1ncc(Cl)cc1Cl` [Example 428, 3-[2-[(3,5-dichloropyridin-2-yl)oxy]-4-(2-methoxyethoxy)phenyl]propyl {[(3-methoxypropyl)amino]sulfonyl}carbamate], the melting point is 87.9 to 89 °C.

In the case of `CCCCCS(=O)(=O)NC(=O)/C=C/c1ccc(OCCCOCCOC)cc1Oc1ncc(C(F)(F)F)cc1Cl` [Example 254, (2E)-3-{2-{[3-chloro-5-(trifluoromethyl)pyridin-2-yl]oxy}-4-[3-(2-methoxyethoxy)propoxy]phenyl}-N-(pentylsulfonyl)acrylamide], the melting point lay in the range of 103 to 105 °C.

On to `CC(C)Oc1cc(CCCNC(=O)NS(=O)(=O)c2ccccc2)n(Cc2ccc(Cl)cc2Cl)n1` [Example 39, N-[({3-[1-(2,4-dichlorobenzyl)-3-isopropoxy-1H-pyrazol-5-yl]propyl}amino)carbonyl]benzenesulfonamide], for which the melting point worked out at 149 °C.

Regarding `COCCOc1ccc(/C=C/C(=O)NS(=O)(=O)c2ccc(C(F)(F)F)cc2)c(Oc2ncc(C(F)(F)F)cc2Cl)c1` [Example 234, (2E)-3-[2-{[3-chloro-5-(trifluoromethyl)pyridin-2-yl]oxy}-4-(2-methoxyethoxy)phenyl]-N-{[4-(trifluoromethyl)phenyl]sulfonyl}acrylamide], the melting point lay in the range of 186.3 to 186.5 °C.

For the compound `COCCOc1ccc(COC(=O)NS(=O)(=O)Nc2ccc(Cl)cc2)c(Oc2ncc(C(F)(F)F)cc2Cl)c1` [Example 68, 2-{[3-chloro-5-(trifluoromethyl)pyridin-2-yl]oxy}-4-(2-methoxyethoxy)benzyl {[(4-chlorophenyl)amino]sulfonyl}carbamate], the melting point is 159 °C (dec.).

As to `CCCCOc1cc(/C=C/C(=O)NS(=O)(=O)CCC(C)C)n(Cc2ccc(Cl)cc2Cl)n1` [Example 99, (2E)-3-[3-butoxy-1-(2,4-dichlorobenzyl)-1H-pyrazol-5-yl]-N-[(3-methylbutyl)sulfonyl]acrylamide], the melting point was 119 to 120 °C.

With `CCCCS(=O)(=O)NC(=O)OCCCc1ccc(OCCOC)cc1Oc1ncc(C(F)(F)F)cc1Cl.O` (hydrate or solvate), the melting point lay within 94 to 96 °C.

`CC(C)CCS(=O)(=O)NC(=O)OCc1cc(OC(C)C)nn1Cc1ccc(Cl)cc1Cl` [Example 141, [1-(2,4-dichlorobenzyl)-3-isopropoxy-1H-pyrazol-5-yl]methyl [(3-methylbutyl)sulfonyl]carbamate]: the melting point lay in the range of 104 to 107 °C.

Compound `COCCOc1ccc(CCCNS(=O)(=O)c2ccccc2[N+](=O)[O-])c(Oc2ncc(C(F)(F)F)cc2Cl)c1` [Example 29, N-{3-[2-{[3-chloro-5-(trifluoromethyl)pyridin-2-yl]oxy}-4-(2-methoxyethoxy)phenyl]propyl}-2-nitrobenzenesulfonamide] registered a melting point of 125.5 to 126 °C.

The compound `CCCCCC(=O)NS(=O)(=O)/C=C/c1cc(OC(C)C)nn1Cc1ccc(Cl)cc1Cl` [Example 125, N-({(E)-2-[1-(2,4-dichlorobenzyl)-3-isopropoxy-1H-pyrazol-5-yl]vinyl}sulfonyl)hexanamide] gave a melting point of 73 to 75 °C.

`CCCCCS(=O)(=O)NC(=O)/C=C/c1ccc(OCCO[Si](c2ccccc2)(c2ccccc2)C(C)(C)C)cc1Oc1ncc(C(F)(F)F)cc1Cl` (hydrate or solvate) registered a melting point of 108 to 108.5 °C.

`CCCCCS(=O)(=O)NC(=O)OCc1ccc(OCCCC)cc1Oc1ncc(C(F)(F)F)cc1Cl` [Example 62, 4-butoxy-2-{[3-chloro-5-(trifluoromethyl)pyridin-2-yl]oxy}benzyl (pentylsulfonyl)carbamate] had a melting point of 124.5 to 125.5 °C.
